# Experiments:
# MDA-MB 231 cells [1] = test: Ceramide generation assay (DAG kinase assay); format: cell-based, human; conditions: 10 mM
# Procedure: FIG. 8. Ceramide production in tempo-treated MDA-MB 231 cells. Logarithmically growing cells were cultured in serum-free medium overnight in 60 mm dishes, and treated with tempol (10 mM) and tempo (10 mM) for indicated times, followed by lipid extraction, and quantitation of ceramide by DAG kinase assay as described in experimental procedures. The organic phase extract containing the [γ^32P]-labeled ceramide was quantitated. Control cells were grown overnight in serum-free medium, followed by treatment with 1% ethanol for various times ranging from 0.5 h to 2 h. Tempol/tempo treatment values shown are the mean±s.d. of triplicate determinations, the value at each time point normalized to control (100%).
# Ceramide Generation Assay—Ceramide production in MDA-MB 231 cells was determined by diacylglycerol (DAG) kinase assay according to a previously described procedure (Haimovitz-Friedman, A. et al., 1994, J. Exp. Med. 180, 525–535; Dressler, K. A. and Kolesnick, R. N., 1990, J. Biol. Chem. 265, 14917–14921). Briefly, MDA-MB 231 cells were split (1:2), and after 24 h, the cells were washed twice with PBS and serum-free medium was added, followed by incubation for additional 24 h. The cells (˜2×10^6/60 mm dish) were treated with tempo (10 mM) or tempol (10 mM) for various times. Following treatment, floating cells were collected and pelleted by centrifugation for 10 min at 1200 rpm, and attached cells were collected by scraping. Lipids were extracted from all cells (floating and attached) by incubation in 1 ml 100% ice-cold methanol. After a partial purification with chloroform, the extracted lipid in the organic phase was dried under N2 and was treated with a mild alkaline solution (0.1 N KOH in methanol) for 1 h at 37° C. to remove glycerolphospholipids. […] The spot containing the ceramide-1-phosphate was visualized by autoradiography, and the incorporated ^32P was removed by scraping, and quantified by Cerenkov counting. […]
# MDA-MB 231 cells [2] = test: Apoptosis assay (annexin V-FITC/propidium iodide flow cytometry); conditions: 10 mM, MDA-MB 231; for apoptosis/necrosis, time course analysis: up to 3 h
# Procedure: FIGS. (7A1–7A3), (7B1–7B2), (7C1–7C3), (7D1–7D2), (7E1–7E3), (7F1–7F2). […] Cells were grown in serum-free medium overnight in T-25 flasks and treated with tempol (10 mM) or tempo (10 mM) for various times, trypsinized, and then resuspended in 200 ul 1× binding buffer as described in experimental procedures. The cell suspension was double-stained with annexin V-FITC and propidium iodide and analyzed by flow cytometry. Background signal was determined by comparison with double-stained, single-stained, or unstained control cells. (7A1–7A3), (7C1–7C3), and (7E1–7E3) are cytograms showing a relative distribution of viable (V), apoptotic (A), and necrotic (N) cells at 2 h following tempol or tempo treatment of MDA-MB 231 cells (A), PCI-04A cells (C), and PC-3 cells (E). (7B1–7B3), (7D1–7D2), and (7F1–7F2) are time course analyses of MDA-MB 231 cells (B), PCT-04A cells (D), and PC-3 cells (F). 100,000 cells were analyzed at each time point in triplicate (B) or quadruplicate (D and F). Solid bars, 1% ethanol, striped bars, 10 mM tempol, empty bars, 10 mM tempo. […] Data shown are representative from three to four independent experiments. (7B1–7B2), Time course analysis of MDA-MB 231 cells undergoing apoptosis (annexin V-FITC staining) (7B1), or necrosis (propidium iodide staining) (7B2). Values shown are mean±s.d. of triplicate determinations per time point in each treatment category, and representative of three to four independent experiments. […] (7D1–7D2), Time course analysis of PCI-04A cells undergoing apoptosis (annexin V-FITC staining) (7D1), or necrosis (propidium iodide staining) (7D2). Values shown are mean±s.d. of quadruplicate determinations per time point in each treatment category. […] (7F1–7F2), Time course analysis of PC-3 cells undergoing apoptosis (annexin V-FITC staining) (7F1), or necrosis (propidium iodide staining) (7F2). Values shown are mean±s.d. of quadruplicate determinations per time point in each treatment category. Control/C, cells treated with 1% ethanol for 2 h.
# Apoptosis Assay—ApoAlert Annexin V apoptosis detection system (Clontech Lab Inc., Palo Alto, Calif.) was used to measure the relative distribution of apoptotic and necrotic cells. Briefly, cells were seeded at a density of 1×10^6 cells per 25 cm^2 tissue culture flask in medium containing 10% FBS overnight, followed by washing twice in serum-free medium. Cells were maintained overnight in serum-free medium and exposed to tempol (10 mM) or tempo (10 mM) for various times. This was followed by rinsing twice with serum-free medium prior to trypsinization, dilution in two volumes of serum-free medium, and centrifugation at 10,000× g. The cell pellet was washed once with PBS and resuspended in 200 ul of 1× binding buffer. The cell suspension was double-labeled with fluorescein isothiocyanate (FITC)-labeled annexin V (10 ul) and propidium iodide (PI) (10 ul) according to the manufacturer's instructions. Unlabeled cells or untreated cells labeled with either FITC-annexin V or PI, or double-labeled served as internal controls for the background signal. The intensity of the dye uptake by cells was detected using FACStar plus Flow Cytometer (Becton Dickerson, Lincoln Park, N.J.), and data were analyzed using Reproman True Facts software (Seattle, Wash.). Viable cells were FITC−/PI−, apoptotic cells were FITC+/PI−, and necrotic cells were FITC+/PI+.
Compound,"increase over control in ceramide level (MDA-MB 231 cells [1]; 30 min, control normalized to 100%) [%]","ceramide level over control (MDA-MB 231 cells [1]; 1 h, control normalized to 100%) [%]",apoptotic cells (A) (MDA-MB 231 cells [2]; 2 h) [%],viable cells (V) (MDA-MB 231 cells [2]; 2 h) [%],"apoptosis/necrosis, time course analysis (MDA-MB 231 cells [2])",level of ceramide generated compared to control cells (MDA-MB 231 cells [1]; all time points)
"CC1(C)CCCC(C)(C)N1[O] [tempo, 2,2,6,6-tetramethylpiperidine-N-oxyl]",54,71,52.42,35.83,"steady increase in the number of apoptotic cells for upto 2 h, followed by a considerable increase in the number of necrotic cells by 3 h",
"CC1(C)CC(O)CC(C)(C)N1[O] [tempol, 4-hydroxy-tempo, reference compound]",,,6.32,,did not induce apoptosis or necrosis,not significantly higher
